Test results: US8513423B2 (Janssen Pharmaceutica, NV, priority 2010, dated 2013)
Changes are numbered by the printed parent chain. pIC50, pKd: −log10 of the molar value. Like-named read-outs stand apart in the source and are kept apart here.

Key:
mutant MGL = target: T1, mutant MGL (Homo sapiens, UniProt Q99685, L169S/L176S); experiment: MGL ThermoFluor assay - mutant; type: binding
T1 construct: purified mutant MGL (mut-MGLL 11-313 L179S L186S)
T1 sequence (Q99685 1-303 L169S/L176S): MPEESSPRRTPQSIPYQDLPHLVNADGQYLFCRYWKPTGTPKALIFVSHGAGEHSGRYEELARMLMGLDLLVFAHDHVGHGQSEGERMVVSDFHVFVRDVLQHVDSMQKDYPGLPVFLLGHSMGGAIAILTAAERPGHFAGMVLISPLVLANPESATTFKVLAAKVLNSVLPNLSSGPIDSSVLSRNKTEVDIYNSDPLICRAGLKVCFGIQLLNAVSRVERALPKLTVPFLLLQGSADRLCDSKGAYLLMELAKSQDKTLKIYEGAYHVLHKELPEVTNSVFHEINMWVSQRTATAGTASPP
Method: The ThermoFluor (TF) assay is a 384-well plate-based binding assay that measures thermal stability of proteins^1,2. The experiments were carried out using instruments available from Johnson & Johnson Pharmaceutical Research & Development, LLC. TF dye used in all experiments was 1,8-ANS (Invitrogen: A-47). Final TF assay conditions used for MGL studies were 0.07 mg/ml of mutant MGL, 100 μM ANS, 200 mM NaCl, 0.001% Tween-20 in 50 mM PIPES (pH=7.0).
Screening compound plates contained 100% DMSO compound solutions at a single concentration. For follow-up concentration-response studies, compounds were arranged in a pre-dispensed plate (Greiner Bio-one: 781280), wherein compounds were serially diluted in 100% DMSO across 11 columns within a series. Columns 12 and 24 were used as DMSO reference and contained no compound. For both single and multiple compound concentration-repsonse experiments, the compound aliquots (46 nL) were robotically predispensed directly into 384-well black assay plates (Abgene: TF-0384/k) using the Hummingbird liquid handler. Following compound dispension, protein and dye solutions were added to achieve the final assay volume of 3 μL. The assay solutions were overlayed with 1 μl of silicone oil (Fluka, type DC 200: 85411) to prevent evaporation.
Bar-coded assay plates were robotically loaded onto a thermostatically controlled PCR-type thermal block and then heated from 40 to 90° C. degrees at a ramp-rate of 1° C./min for all experiments. Fluorescence was measured by continuous illumination with UV light (Hamamatsu LC6), supplied via fiber optics and filtered through a band-pass filter (380-400 nm; >6 OD cutoff). Fluorescence emission of the entire 384-well plate was detected by measuring light intensity using a CCD camera (Sensys, Roper Scientific) filtered to detect 500±25 nm, resulting in simultaneous and independent readings of all 384 wells. A single image with 20-sec exposure time was collected at each temperature, and the sum of the pixel intensity in a given area of the assay plate was recorded vs temperature and fit to standard equations to yield the Tm^1. • 1. Pantoliano, M. W., Petrella, E. C., Kwasnoski, J. D., Lobanov, V. S., Myslik, J., Graf, E., Carver, T., Asel, E., Springer, B. A., Lane, P., and Salemme, F. R. (2001) J Biomol Screen 6, 429-40. • 2. Matulis, D., Kranz, J. K., Salemme, F. R., and Todd, M. J. (2005) Biochemistry 44, 5258-66.
The Kd values for compounds of Formula (I) were determined from a fit of the equation to the concentration-response plot of the fractional activity as a function of Tm. For some experiments, quantitative NMR spectroscopy (qNMR) was used to measure concentration of the initial 100% DMSO compound solutions and, using the same fitting method, qKd values were determined

MGL = target: T2, MGL (Rattus norvegicus, UniProt Q8R431); experiment: 2-AG accumulation assay in rat brain homogenate; type: biochemical; conditions: compound @1 μM, read-out: Rat Brain 2AG % VehCntrl (%) @1 μM
T2 construct: one g rat brain was homogenized; from tissue; host or cells: rat brain homogenate
T2 sequence (Q8R431 1-303): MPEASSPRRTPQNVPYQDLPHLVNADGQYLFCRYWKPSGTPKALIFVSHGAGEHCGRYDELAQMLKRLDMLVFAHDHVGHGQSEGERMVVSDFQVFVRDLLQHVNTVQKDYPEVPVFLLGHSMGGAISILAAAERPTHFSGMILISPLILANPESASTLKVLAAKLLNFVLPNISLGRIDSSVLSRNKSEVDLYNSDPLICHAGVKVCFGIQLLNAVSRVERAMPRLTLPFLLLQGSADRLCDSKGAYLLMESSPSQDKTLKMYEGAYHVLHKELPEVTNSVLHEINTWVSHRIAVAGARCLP
Method: After a 15-min incubation time at 37° C., CaCl2 (final concentration=10 mM) was added and then incubated for 15 min at 37° C. in a total volume of 5 mL. The reactions were stopped with 6 mL organic solvent extraction solution of 2:1 chloroform/methanol. Accumulated 2-AG in the organic phase was measured by a HPLC/MS method, according to the following equation: percent vehicle=(2-AG accumulation in the presence of compound/2-AG accumulation in vehicle)×100.

[1] = target: T3, purified wild type MGL (wt-MGLL 6H-11-313) (Homo sapiens, UniProt Q99685); experiment: MGL enzyme activity assay (4MU-B cleavage), wild type MGL; type: biochemical; conditions: 10 μM 4MU-B, 5 nM enzyme, 37° C., read-out: MGL wild type inh IC50
T3 construct: purified wild type MGL (wt-MGLL 6H-11-313)
T3 sequence (Q99685 1-303): T1 sequence (Q99685 1-303 L169S/L176S) with S169L, S176L
Method: All rate-based assays were performed in black 384-well polypropylene PCR microplates (Abgene) in a total volume of 30 μL. Substrate 4-methylumbelliferyl butyrate (4MU-B; Sigma) and either purified mutant MGL (mut-MGLL 11-313 L179S L186S) or purified wild type MGL (wt-MGLL 6H-11-313) were diluted separately into 20 mM PIPES buffer (pH=7.0), containing 150 mM NaCl and 0.001% Tween 20. Compounds of Formula (I) were pre-dispensed (50 nL) into the assay plate using a Cartesian Hummingbird prior to adding 4MU-B (25 μL of 1.2× solution to a final concentration of 10 μM) followed by enzyme (5 μL of a 6× solution to a final concentration of 5 nM) to initiate the reaction. Final compound concentrations ranged from 17 to 0.0003 μM. The fluorescence change due to 4MU-B cleavage was monitored with excitation and emission wavelengths of 335 and 440 nm, respectively, and a bandwidth of 10 nm (Safire^2, Tecan) at 37° C. for 5 min.
The IC50 values for compounds of Formula (I) were determined using Excel from a fit of the equation to the concentration-response plot of the fractional activity as a function of inhibitor concentration.

[2] = compound concentration measured by qNMR, read-out: MGL mutant ThermoFluor qKd (using qNMR conc.)
[3] = 0.07 mg/ml mutant MGL, pH=7.0, read-out: MGL mutant ThermoFluor Kd

Row | Compound | pKd (mutant MGL; [2]) | 2-AG accumulation, percent of vehicle control at 1 µM (MGL) | pIC50 [1] | pKd (mutant MGL; [3])
1 | O=C(c1ccc(-c2ccc(C(F)(F)F)s2)cc1)N1CC(C2CCN(C(=O)c3ccc[nH]3)CC2)C1 [Cpd 24, 1-(1H-Pyrrol-2-ylcarbonyl)-4-[1-({4-[5-(trifluoromethyl)thiophen-2-yl]phenyl}carbonyl)azetidin-3-yl]piperidine] | – | 298% | 7.42 | 7.70
2 | O=C(c1cscn1)N1CC(C2CCN(C(=O)c3ccc(-c4ccccc4)cc3F)CC2)C1 [Cpd 46] | 7.70 | – | 6.95 | –
3 | O=C(c1ccc2c(c1)ncn2CC(F)(F)F)N1CC(C2CCN(C(=O)c3nccs3)CC2)C1 [Cpd 84, 5-({3-[1-(1,3-Thiazol-2-ylcarbonyl)piperidin-4-yl]azetidin-1-yl}carbonyl)-1-(2,2,2-trifluoroethyl)-1H-benzimidazole] | 7.18 | – | 6.76 | –
4 | Cc1nc2cc(C(=O)N3CC(C4CCN(C(=O)c5nccs5)CC4)C3)ccc2n1CCC(F)(F)F [Cpd 91, 2-Methyl-5-({3-[1-(1,3-thiazol-2-ylcarbonyl)piperidin-4-yl]azetidin-l-yl}carbonyl)-1-(3,3,3-trifluoropropyl)-1H-benzimidazole] | 7.49 | – | 6.63 | –
5 | O=C(c1ccc2c(c1)[nH]c(=O)n2-c1ccc(F)cc1)N1CC(C2CCN(C(=O)c3nccs3)CC2)C1 [Cpd 97, 1-(4-Fluorophenyl)-5-({3-[1-(1,3-thiazol-2-ylcarbonyl)piperidin-4-yl]azetidin-1-yl}carbonyl)-1,3-dihydro-2H-benzimidazol-2-one] | 7.66 | – | 7.47 | –
6 | O=C(c1ccc2c(c1)[nH]c(=O)n2C1CCC(F)(F)CC1)N1CC(C2CCN(C(=O)c3nccs3)CC2)C1 [Cpd 101, 1-(4,4-Difluorocyclohexyl)-5-({3-[1-(1,3-thiazol-2-ylcarbonyl)piperidin-4-yl]azetidin-1-yl}carbonyl)-1,3-dihydro-2H-benzimidazol-2-one] | 8.41 | – | 6.98 | –
7 | O=C(c1cccc(-c2cccc(F)c2)c1)N1CC(C2CCN(C(=O)c3cscn3)CC2)C1 [Cpd 11, 4-{1-[(3′-Fluorobiphenyl-3-yl)carbonyl]azetidin-3-yl}-1-(1,3-thiazol-4-ylcarbonyl)piperidine] | – | – | 6.30 | 6.14
8 | O=C(c1ccc2c(c1)ncn2-c1ccc(F)cc1)N1CC(C2CCN(C(=O)c3nccs3)CC2)C1 [Cpd 81, 1-(4-Fluorophenyl)-5-({3-[1-(1,3-thiazol-2-ylcarbonyl)piperidin-4-yl]azetidin-1-yl}carbonyl)-1H-benzimidazole] | 7.83 | – | 7.63 | –
9 | O=C(c1ccc2c(c1)[nH]c(=O)n2CCC(F)(F)F)N1CC(C2CCN(C(=O)c3nccs3)CC2)C1 [Cpd 100, 5-({3-[1-(1,3-Thiazol-2-ylcarbonyl)piperidin-4-yl]azetidin-1-yl}carbonyl)-1-(3,3,3-trifluoropropyl)-1,3-dihydro-2H-benzimidazol-2-one] | 7.05 | – | 7.00 | –

Stronger by pIC50 [1], values ahead:

Row | pKd (mutant MGL; [2]) | 2-AG accumulation, percent of vehicle control at 1 µM (MGL) | pIC50 [1] | pKd (mutant MGL; [3]) | Compound
10 | 7.76 | 435% | > 8.30 | – | O=C(c1ccc(Cc2ccc(C(F)(F)F)cc2)cc1)N1CCC(C2CN(C(=O)c3nccs3)C2)CC1 [Cpd 63, 4-[1-(1,3-Thiazol-2-ylcarbonyl)azetidin-3-yl]-1-({4-[4-(trifluoromethyl)benzyl]phenyl}carbonyl)piperidine]
11 | 7.41 | – | 7.85 | – | Cc1cc(-n2ccc3cc(C(=O)N4CC(C5CCN(C(=O)c6nccs6)CC5)C4)ccc32)ccn1 [Cpd 95, 1-(2-Methylpyridin-4-yl)-5-({3-[1-(1,3-thiazol-2-ylcarbonyl)piperidin-4-yl]azetidin-1-yl}carbonyl)-1H-indole]
12 | 7.88 | – | 8.02 | – | Cc1nc2cc(C(=O)N3CC(C4CCN(C(=O)c5nccs5)CC4)C3)ccc2n1-c1ccc(F)c(F)c1 [Cpd 88, 1-(3,4-Difluorophenyl)-2-methyl-5-({3-[1-(1,3-thiazol-2-ylcarbonyl)piperidin-4-yl]azetidin-1-yl}carbonyl)-1H-benzimidazole]
13 | 7.36 | – | 7.78 | – | O=C(c1ccc2c(c1)[nH]c(=O)n2-c1ccc(F)c(F)c1)N1CC(C2CCN(C(=O)c3nccs3)CC2)C1 [Cpd 98, 1-(3,4-Difluorophenyl)-5-({3-[1-(1,3-thiazol-2-ylcarbonyl)piperidin-4-yl]azetidin-1-yl}carbonyl)-1,3-dihydro-2H-benzimidazol-2-one]
14 | 8.41 | – | > 8.30 | – | O=C(c1ccc2c(ccn2-c2ccc(C(F)(F)F)cc2)c1)N1CCC(C2CN(C(=O)c3nccs3)C2)CC1 [Cpd 75, 5-({4-[1(1,3-Thiazol-2-ylcarbonyl)azetidin-3-yl]piperidin-1-yl}carbonyl)-1-[4-(trifluoromethyl)phenyl]-1H-indole]
15 | 7.87 | – | 8.04 | – | O=C(c1ccc2c(c1)ncn2-c1ccc(C(F)(F)F)cc1)N1CC(C2CCN(C(=O)c3nccs3)CC2)C1 [Cpd 83, 5-({30[1-(1,3-Thiazol-2-ylcarbonyl)piperidin-4-yl]azetidin-1-yl}carbonyl)-1-[4-(trifluoromethyl)phenyl]-1H-benzimidazole]
